Results reported in US11339130B1 (Blade Therapeutics, Inc., priority 2016, dated 2022).
Where two headings read alike, the source gives them in different places.

Experiments:
Human Calpain 9/NS1 = target: T1, Human Calpain 9/NS1 (Homo sapiens, UniProt O14815); assay: Calpain inhibition continuous fluorescence (FRET) assay, Human Calpain 9/NS1; type: biochemical; conditions: read-out: Human Calpain 9/NS1 IC50
T1 sequence (O14815 1-690): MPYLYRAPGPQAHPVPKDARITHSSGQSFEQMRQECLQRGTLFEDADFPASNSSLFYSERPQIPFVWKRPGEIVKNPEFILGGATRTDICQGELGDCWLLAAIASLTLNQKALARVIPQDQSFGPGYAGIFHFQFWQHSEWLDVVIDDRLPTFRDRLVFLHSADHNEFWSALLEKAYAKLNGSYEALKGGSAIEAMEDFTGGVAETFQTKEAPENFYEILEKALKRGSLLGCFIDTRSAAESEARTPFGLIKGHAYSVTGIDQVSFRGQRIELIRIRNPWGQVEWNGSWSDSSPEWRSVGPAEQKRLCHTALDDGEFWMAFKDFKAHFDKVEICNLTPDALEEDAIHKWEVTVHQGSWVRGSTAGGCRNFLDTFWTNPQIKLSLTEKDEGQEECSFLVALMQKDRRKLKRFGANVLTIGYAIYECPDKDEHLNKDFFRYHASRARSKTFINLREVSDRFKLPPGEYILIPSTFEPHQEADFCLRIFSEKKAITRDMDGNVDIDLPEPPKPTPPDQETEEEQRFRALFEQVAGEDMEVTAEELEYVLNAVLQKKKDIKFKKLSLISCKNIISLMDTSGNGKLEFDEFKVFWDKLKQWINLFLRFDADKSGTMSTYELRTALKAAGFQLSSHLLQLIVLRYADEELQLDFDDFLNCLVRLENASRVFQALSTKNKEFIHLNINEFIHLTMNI
T1 sequence (P04632 1-268 partner): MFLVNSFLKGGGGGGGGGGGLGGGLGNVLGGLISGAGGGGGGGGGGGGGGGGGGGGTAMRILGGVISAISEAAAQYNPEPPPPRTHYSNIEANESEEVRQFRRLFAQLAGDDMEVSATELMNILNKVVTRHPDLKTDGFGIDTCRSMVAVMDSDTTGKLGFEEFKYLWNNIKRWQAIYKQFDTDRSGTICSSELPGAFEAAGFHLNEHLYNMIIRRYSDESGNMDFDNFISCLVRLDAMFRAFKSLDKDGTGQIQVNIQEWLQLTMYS
Outline: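 Buffer 50 mM Tris pH 7.5/100 mM NaCl/1 mM DTT; enzyme + cpd preinc 25C; start w/ FRET substrate + CaCl2; kinetic 490/520 nm, 10 min; slopes 1-5 min; 4-PL IC50.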

[1] = test system: Bleomycin-induced pulmonary fibrosis; assay: Bleomycin-induced pulmonary fibrosis in mice (14 d); type: in vivo; parameters: concentration or dose not given beside the values
Text: The method for inducing pulmonary fibrosis in mice is described in Current Protocols in Pharmacology: 5.46.1, entitled “Mouse Models of Bleomycin-induced Pulmonary Fibrosis”. In order to induce pulmonary fibrosis, 6-8 week old C57B1/6 mice or Wistar rats are instilled once oropharyngeally with ˜1.5 U/kg of bleomycin sulfate (Calbiochem, Billerica, Mass.). Briefly, for oropharyngeal administration of bleomycin, mice or rats are anesthetized with isofluorane and then suspended on its back at a˜60 degree angle on an inclined surface with a rubber band running under the upper incisors. The airway is opened while securing the tongue with one arm of padded forceps and bleomycin is administered into the back of the oral cavity with a syringe. The animal's tongue and mouth were held open until the liquid disappeared from the oral cavity. The animal was then returned to its cage and monitored until fully recovered from the anesthesia. The study is terminated on day 14-28 for oropharyngeally administered bleomycin in mice and rats. All animals are euthanized at the termination of the studies by cervical dislocation for gross necropsy, and blood collected by cardiac puncture. The lungs from each animal are dissected from the animal and weighed. The BAL cells and fluid are collected by lavaging the lung twice with 0.5 ml Hanks Balanced Salt Solution (HBSS; VWR, Radnor, Pa.). After collection of BAL cells and fluid, lungs are dissected and removed from each animal. Whole lungs are inflated with 10% NBF and then fixed in 10% NBF for histology. Severity of fibrosis in the lungs is evaluated using a modified Ashcroft score (Hubner, Biotechniques, 2008) and subjective fibrosis scores. Lung sections were graded by averaging 5 microscopic fields at 20× on an Ashcroft scale as follows: Grade 0=normal lung; Grade 1=minimally detectable thickening of alveolar walls; Grade 2=Mild thickening of alveolar walls. Grade 3=moderate contiguous thickening of walls with fibrous nodules; Grade 4=Thickened septae and confluent fibrotic masses that total less than 10% of microscopic field. Grade 5=increased fibrosis with definite damage to lung structure and formation of fibrous bands or small fibrous masses between 10 and 50% of microscopic field; Grade 6=Large contiguous fibrotic masses consolidating more than 50% of microscopic field. Grade 7=severe distortion of structure and large fibrous areas; Grade 8=total fibrous obliteration of lung within microscopic field. Each slide was examined at 20× magnification and the score for 5 separate representative fields was averaged for each animal. Subjective scores (H&E and Trichrome-stained slides) were evaluated at 2× magnification for an overall assessment of pathologic change. A score of 0=no detectible findings to 5=complete involvement of consolidation. Scores in each group were averaged and standard error was calculated using Excel 2010. Dense, organized inflammatory exudates were scored as fibrosis. Other tissues were evaluated microscopically and scored routinely.

IC50 (Human Calpain 9/NS1; Column C) [µM] | IC50 (Human Calpain 9/NS1) [µM] | SMILES | % reduction compared to vehicle [1] [%]
< 3 | – | Cn1cc(C(=O)N[C@@H](Cc2ccccc2)C(=O)C(N)=O)c(-c2ccccc2)n1 [Compound 32, (S)—N-(4-amino-3,4-dioxo-1-phenylbutan-2-yl)-1-methyl-3-phenyl-1H-pyrazole-4-carboxamide] | –
< 3 | – | NC(=O)C(=O)[C@H](Cc1ccccc1)NC(=O)c1snnc1-c1ccccc1 [Compound 44, (S)—N-(4-amino-3,4-dioxo-1-phenylbutan-2-yl)-4-phenyl-1,2,3-thiadiazole-5-carboxamide] | –
< 3 | – | NC(=O)C(=O)[C@H](Cc1ccccc1)NC(=O)c1cnoc1-c1ccccc1 [Compound 60, (S)—N-(4-amino-3,4-dioxo-1-phenylbutan-2-yl)-5-phenylisoxazole-4-carboxamide] | −24
< 3 | – | NC(=O)C(=O)[C@H](Cc1ccccc1)NC(=O)c1nsnc1-c1ccccc1 [Compound 72, (S)—N-(4-amino-3,4-dioxo-1-phenylbutan-2-yl)-4-phenyl-1,2,5-thiadiazole-3-carboxamide] | −35
< 3 | – | NC(=O)C(=O)[C@H](Cc1ccccc1)NC(=O)c1cn(C2CC2)nc1-c1ccccc1 [Compound 250, (S)—N-(4-amino-3,4-dioxo-1-phenylbutan-2-yl)-1-cyclopropyl-3-phenyl-1H-pyrazole-4-carboxamide] | –
< 3 | – | CCCC[C@H](NC(=O)c1oc(C)nc1-c1ccccc1)C(=O)C(N)=O [Compound 265, (S)—N-(1-amino-1,2-dioxoheptan-3-yl)-2-methyl-4-phenyloxazole-5-carboxamide] | –
– | < 3 | Cc1nc(-c2ccccc2)c(C(=O)NC(Cc2ccccc2)C(=O)C(N)=O)o1 (stereo not drawn) [Compound 357, N-(4-amino-3,4-dioxo-1-phenylbutan-2-yl)-2-methyl-4-phenyloxazole-5-carboxamide] | −13
– | < 3 | NC(=O)C(=O)C(Cc1ccccc1)NC(=O)c1cn(C(F)F)nc1-c1ccccc1 (stereo not drawn) [Compound 403, N-(4-amino-3,4-dioxo-1-phenylbutan-2-yl)-1-(difluoromethyl)-3-phenyl-1H-pyrazole-4-carboxamide] | −29
– | < 3 | Cc1nc(-c2cccc(F)c2)c(C(=O)NC(Cc2ccccc2)C(=O)C(N)=O)o1 (stereo not drawn) [Compound 404, N-(4-amino-3,4-dioxo-1-phenylbutan-2-yl)-4-(3-fluorophenyl)-2-methyloxazole-5-carboxamide] | −24
– | < 3 | Cc1nc(-c2ccccc2F)c(C(=O)NC(Cc2ccccc2)C(=O)C(N)=O)o1 (stereo not drawn) [Compound 405, N-(4-amino-3,4-dioxo-1-phenylbutan-2-yl)-4-(2-fluorophenyl)-2-methyloxazole-5-carboxamide] | −33
– | < 3 | NC(=O)C(=O)C(Cc1ccccc1)NC(=O)c1cn(C2CC2)nc1-c1ccccc1 (stereo not drawn) [Compound 406, N-(4-amino-3,4-dioxo-1-phenylbutan-2-yl)-1-cyclopropyl-3-phenyl-1H-pyrazole-4-carboxamide] | −25
– | < 3 | Cn1cc(C(=O)NC(Cc2ccccc2)C(=O)C(N)=O)c(-c2ccccc2F)n1 (stereo not drawn) [Compound 484, N-(4-amino-3,4-dioxo-1-phenylbutan-2-yl)-3-(2-fluorophenyl)-1-methyl-1H-pyrazole-4-carboxamide] | −35
– | < 3 | Cl.Cn1cc(C(=O)NC(Cc2ccccc2)C(=O)C(N)=O)c(-c2cccc(F)c2)n1 (stereo not drawn) [Compound 485, N-(4-amino-3,4-dioxo-1-phenylbutan-2-yl)-3-(3-fluorophenyl)-1-methyl-1H-pyrazole-4-carboxamide hydrochloride] | −41
– | < 3 | Cc1cc(C(=O)NC(Cc2ccccc2)C(=O)C(N)=O)n(-c2ccccn2)n1 (stereo not drawn) [Compound 495, N-(4-amino-3,4-dioxo-1-phenylbutan-2-yl)-3-methyl-1-(pyridin-2-yl)-1H-pyrazole-5-carboxamide] | −27
